The supplement of paper PMC5662764
± gives the standard deviation of the averaged measurements.

Key:
Experiment in all cases: normalised growth rate inhibition (GR value) relative to DMSO control (GR (1 = untreated growth, 0 = cytostasis, <0 = cytotoxic)); higher = less growth inhibition
Details in all cases: 72 h
[1] = test system: BT20
Description: (§1)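 Breast cancer cell lines (BT-20, Hs 578T, MCF 10A, MCF7, MDA-MB-231, SK-BR-3) were plated in 384-well plates and treated 24 h later with drugs at six concentrations (0.04-10 µM). Viable cells were counted by Hoechst/dead-cell-stain imaging at 0 and 72 h. Counts were normalised to DMSO controls on the same plate to give the relative cell count and the growth-rate inhibition (GR) value; technical plate triplicates were averaged for each biological replicate.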

[2] = test system: MCF10A
Description: as §1

[3] = test system: MDAMB231
Description: as §1

[4] = test system: MCF7
Description: as §1

[5] = test system: SKBR3
Description: as §1

[6] = test system: HS578T
Description: as §1

Structure (SMILES) | normalised growth rate inhibition ([1]; 0.04 µM) | normalised growth rate inhibition ([1]; 0.12 µM) | normalised growth rate inhibition ([1]; 0.37 µM) | normalised growth rate inhibition ([1]; 1.11 µM) | normalised growth rate inhibition ([1]; 3.33 µM) | normalised growth rate inhibition ([1]; 10 µM) | normalised growth rate inhibition ([2]; 0.04 µM) | normalised growth rate inhibition ([2]; 0.12 µM) | normalised growth rate inhibition ([2]; 0.37 µM) | normalised growth rate inhibition ([2]; 1.11 µM) | normalised growth rate inhibition ([2]; 3.33 µM) | normalised growth rate inhibition ([2]; 10 µM) | normalised growth rate inhibition ([3]; 0.04 µM) | normalised growth rate inhibition ([3]; 0.12 µM) | normalised growth rate inhibition ([3]; 0.37 µM) | normalised growth rate inhibition ([3]; 1.11 µM) | normalised growth rate inhibition ([3]; 3.33 µM) | normalised growth rate inhibition ([3]; 10 µM) | normalised growth rate inhibition ([4]; 0.04 µM) | normalised growth rate inhibition ([4]; 0.12 µM) | normalised growth rate inhibition ([4]; 0.37 µM) | normalised growth rate inhibition ([4]; 1.11 µM) | normalised growth rate inhibition ([4]; 3.33 µM) | normalised growth rate inhibition ([4]; 10 µM) | normalised growth rate inhibition ([5]; 0.04 µM) | normalised growth rate inhibition ([5]; 0.12 µM) | normalised growth rate inhibition ([5]; 0.37 µM) | normalised growth rate inhibition ([5]; 1.11 µM) | normalised growth rate inhibition ([5]; 3.33 µM) | normalised growth rate inhibition ([5]; 10 µM) | normalised growth rate inhibition ([6]; 0.04 µM) | normalised growth rate inhibition ([6]; 0.12 µM) | normalised growth rate inhibition ([6]; 0.37 µM) | normalised growth rate inhibition ([6]; 1.11 µM) | normalised growth rate inhibition ([6]; 3.33 µM) | normalised growth rate inhibition ([6]; 10 µM)
CN1CCN(c2ccc3nc(-c4c(N)c5c(F)cccc5[nH]c4=O)[nH]c3c2)CC1 [dovitinib] | 0.83 ± 0.047 | 0.685 ± 0.11 | 0.394 ± 0.13 | 0.304 ± 0.072 | 0.219 ± 0.034 | 0.156 ± 0.12 | 0.962 ± 0.032 | 0.893 ± 0.046 | 0.599 ± 0.098 | 0.368 ± 0.18 | 0.146 ± 0.085 | 0.0253 ± 0.033 | 0.903 ± 0.11 | 0.817 ± 0.14 | 0.534 ± 0.1 | 0.451 ± 0.12 | 0.343 ± 0.068 | 0.23 ± 0.099 | 0.898 ± 0.047 | 0.862 ± 0.079 | 0.678 ± 0.14 | 0.554 ± 0.19 | 0.379 ± 0.17 | 0.304 ± 0.1 | 0.711 ± 0.12 | 0.659 ± 0.066 | 0.497 ± 0.062 | 0.474 ± 0.081 | 0.275 ± 0.04 | 0.142 ± 0.045 | 0.791 ± 0.047 | 0.562 ± 0.035 | 0.3 ± 0.083 | 0.271 ± 0.097 | 0.283 ± 0.079 | 0.254 ± 0.16
Cn1cc(C2=C(c3cn(C4CCN(Cc5ccccn5)CC4)c4ccccc34)C(=O)NC2=O)c2ccccc21 [enzastaurin] | 1.01 ± 0.1 | 1.03 ± 0.057 | 1.07 ± 0.043 | 1.07 ± 0.079 | 1.13 ± 0.057 | 1.19 ± 0.062 | 1.006 ± 0.0093 | 1 ± 0.014 | 1 ± 0.018 | 1.02 ± 0.03 | 1.01 ± 0.061 | 0.985 ± 0.11 | 1 ± 0.023 | 1.01 ± 0.035 | 1 ± 0.048 | 1 ± 0.071 | 1.01 ± 0.036 | 1.03 ± 0.079 | 0.978 ± 0.052 | 0.999 ± 0.035 | 1.01 ± 0.035 | 0.946 ± 0.039 | 0.936 ± 0.084 | 0.693 ± 0.31 | 1.1 ± 0.097 | 1.07 ± 0.085 | 1.1 ± 0.033 | 1.06 ± 0.033 | 1.07 ± 0.056 | 0.958 ± 0.18 | 1.02 ± 0.027 | 0.998 ± 0.018 | 1 ± 0.028 | 1.02 ± 0.027 | 1.01 ± 0.019 | 0.935 ± 0.035
C#Cc1cccc(Nc2ncnc3cc(OCCOC)c(OCCOC)cc23)c1 [erlotinib] | 0.861 ± 0.025 | 0.879 ± 0.049 | 0.902 ± 0.068 | 0.834 ± 0.032 | 0.856 ± 0.049 | 0.547 ± 0.057 | 0.973 ± 0.013 | 0.829 ± 0.14 | 0.432 ± 0.17 | 0.107 ± 0.053 | 0.132 ± 0.065 | 0.136 ± 0.036 | 0.9 ± 0.058 | 0.937 ± 0.032 | 0.953 ± 0.035 | 0.962 ± 0.036 | 0.969 ± 0.016 | 0.641 ± 0.069 | 0.858 ± 0.069 | 0.899 ± 0.074 | 1.02 ± 0.024 | 1.06 ± 0.047 | 1.04 ± 0.04 | 0.927 ± 0.074 | 0.756 ± 0.077 | 0.885 ± 0.06 | 0.946 ± 0.085 | 0.911 ± 0.072 | 0.868 ± 0.08 | 0.165 ± 0.12 | 0.973 ± 0.015 | 0.965 ± 0.023 | 0.957 ± 0.012 | 0.945 ± 0.019 | 0.918 ± 0.016 | 0.586 ± 0.073
COc1cc2c(Oc3ccc(NC(=O)C4(C(=O)Nc5ccc(F)cc5)CC4)cc3F)ccnc2cc1OCCCN1CCOCC1 [foretinib] | 1.02 ± 0.046 | 0.799 ± 0.15 | 0.236 ± 0.22 | -0.00958 ± 0.12 | -0.0192 ± 0.12 | -0.124 ± 0.12 | 1.03 ± 0.031 | 0.992 ± 0.028 | 0.902 ± 0.034 | 0.429 ± 0.1 | 0.154 ± 0.043 | -0.0329 ± 0.028 | 0.91 ± 0.037 | 0.615 ± 0.012 | 0.168 ± 0.12 | 0.113 ± 0.12 | 0.0741 ± 0.17 | -0.211 ± 0.056 | 1.01 ± 0.025 | 0.495 ± 0.2 | 0.134 ± 0.019 | 0.0492 ± 0.039 | 0.00497 ± 0.016 | -0.225 ± 0.025 | 1.07 ± 0.037 | 0.812 ± 0.26 | 0.0769 ± 0.069 | -0.0562 ± 0.079 | -0.034 ± 0.083 | -0.0967 ± 0.11 | 0.936 ± 0.045 | 0.845 ± 0.011 | 0.381 ± 0.15 | 0.256 ± 0.14 | 0.178 ± 0.14 | -0.223 ± 0.12
COc1cc2ncnc(Nc3ccc(F)c(Cl)c3)c2cc1OCCCN1CCOCC1 [gefitinib] | 1.04 ± 0.075 | 0.968 ± 0.11 | 0.94 ± 0.051 | 0.909 ± 0.075 | 0.878 ± 0.05 | 0.762 ± 0.11 | 0.887 ± 0.052 | 0.59 ± 0.11 | 0.265 ± 0.088 | 0.122 ± 0.01 | 0.121 ± 0.024 | 0.105 ± 0.022 | 1.07 ± 0.063 | 1.03 ± 0.068 | 1.019 ± 0.0099 | 1.02 ± 0.038 | 1.01 ± 0.069 | 0.897 ± 0.021 | 1.09 ± 0.064 | 1.06 ± 0.069 | 1.05 ± 0.083 | 1.04 ± 0.092 | 1.03 ± 0.069 | 0.808 ± 0.04 | 0.909 ± 0.055 | 0.74 ± 0.063 | 0.567 ± 0.076 | 0.418 ± 0.099 | 0.342 ± 0.12 | 0.048 ± 0.14 | 0.999 ± 0.0098 | 0.9844 ± 0.0036 | 0.984 ± 0.015 | 0.986 ± 0.014 | 0.987 ± 0.0035 | 0.849 ± 0.015
COC1=C2C[C@@H](C)C[C@H](OC)[C@H](O)[C@@H](C)/C=C(\C)[C@H](OC(N)=O)[C@@H](OC)/C=C\C=C(/C)C(=O)NC(=CC1=O)C2=O [geldanamycin] | 0.262 ± 0.1 | 0.00984 ± 0.086 | -0.0513 ± 0.1 | -0.0518 ± 0.12 | -0.114 ± 0.12 | -0.238 ± 0.1 | 0.111 ± 0.066 | -0.0212 ± 0.045 | -0.0537 ± 0.053 | -0.0551 ± 0.04 | -0.0997 ± 0.049 | -0.171 ± 0.06 | 0.443 ± 0.2 | 0.0763 ± 0.097 | 0.0142 ± 0.17 | -0.0565 ± 0.17 | -0.148 ± 0.15 | -0.284 ± 0.13 | 0.503 ± 0.079 | 0.134 ± 0.026 | 0.0361 ± 0.021 | 0.0592 ± 0.03 | -0.0316 ± 0.038 | -0.3 ± 0.085 | 0.0174 ± 0.11 | -0.0672 ± 0.11 | -0.0584 ± 0.085 | -0.03 ± 0.059 | -0.187 ± 0.11 | -0.441 ± 0.14 | 0.762 ± 0.073 | 0.219 ± 0.12 | 0.143 ± 0.062 | 0.121 ± 0.071 | 0.0267 ± 0.14 | -0.11 ± 0.17
Cc1ccc(NC(=O)c2ccc(CN3CCN(C)CC3)cc2)cc1Nc1nccc(-c2cccnc2)n1 [imatinib] | 1 ± 0.033 | 1.02 ± 0.075 | 0.99 ± 0.03 | 1.02 ± 0.037 | 0.991 ± 0.042 | 0.981 ± 0.057 | 1.002 ± 0.0079 | 1.001 ± 0.0023 | 0.9962 ± 0.003 | 1 ± 0.014 | 1.01 ± 0.018 | 0.998 ± 0.031 | 1.01 ± 0.055 | 0.999 ± 0.032 | 1.02 ± 0.04 | 1 ± 0.045 | 1.02 ± 0.028 | 0.915 ± 0.022 | 1.06 ± 0.084 | 1.08 ± 0.088 | 1.08 ± 0.076 | 1.06 ± 0.057 | 1.04 ± 0.075 | 0.9 ± 0.039 | 1.05 ± 0.04 | 1.07 ± 0.045 | 1.04 ± 0.061 | 1.08 ± 0.046 | 1.11 ± 0.066 | 0.991 ± 0.043 | 0.997 ± 0.018 | 0.996 ± 0.011 | 1.01 ± 0.034 | 1.03 ± 0.041 | 1.05 ± 0.059 | 1.05 ± 0.11
CS(=O)(=O)CCNCc1ccc(-c2ccc3ncnc(Nc4ccc(OCc5cccc(F)c5)c(Cl)c4)c3c2)o1 [lapatinib] | 0.857 ± 0.091 | 0.957 ± 0.075 | 0.965 ± 0.053 | 0.991 ± 0.062 | 0.958 ± 0.11 | 0.749 ± 0.15 | 0.975 ± 0.029 | 0.957 ± 0.034 | 0.943 ± 0.047 | 0.895 ± 0.075 | 0.747 ± 0.16 | 0.288 ± 0.17 | 0.878 ± 0.033 | 0.9385 ± 0.0078 | 0.955 ± 0.01 | 0.948 ± 0.025 | 0.947 ± 0.011 | 0.62 ± 0.11 | 0.803 ± 0.12 | 0.872 ± 0.13 | 0.947 ± 0.074 | 0.936 ± 0.092 | 0.926 ± 0.051 | 0.321 ± 0.14 | 0.0194 ± 0.093 | -0.00655 ± 0.072 | -0.0149 ± 0.1 | -0.0045 ± 0.12 | 0.00322 ± 0.13 | 0.133 ± 0.035 | 0.982 ± 0.025 | 0.9754 ± 0.0072 | 0.976 ± 0.019 | 0.985 ± 0.015 | 1.01 ± 0.027 | 0.636 ± 0.14
